Data from the NIST ThermoML archive (doi:10.1016/j.jct.2011.12.022).
“And” between values parts separate entries of the source, which are not always exact repeats. Identical values can stand only once.

Experiment: mn = molality of the nth substance listed, in mol/kg
Settings: 101 kPa, Liquid, Pycnometric method

CN(C)C(=N)NC(=N)N.Cl [N,N-dimethylimidodicarbonimidic diamide hydrochloride] + O
Settings | mass density
288.15 K, m1 = 0.0309 | 1000.34 kg/m3
288.15 K, m1 = 0.0416 | 1000.77 kg/m3
288.15 K, m1 = 0.0506 | 1001.17 kg/m3
288.15 K, m1 = 0.0608 | 1001.55 kg/m3
288.15 K, m1 = 0.0712 | 1001.9 kg/m3
288.15 K, m1 = 0.0815 | 1002.31 kg/m3
288.15 K, m1 = 0.0922 | 1002.71 kg/m3
288.15 K, m1 = 0.1028 | 1003.21 kg/m3
288.15 K, m1 = 0.1138 | 1003.39 kg/m3
288.15 K, m1 = 0.1207 | 1003.71 kg/m3
288.15 K, m1 = 0.1527 | 1004.89 kg/m3
298.15 K, m1 = 0.029 | 998.2 kg/m3
298.15 K, m1 = 0.0415 | 998.7 kg/m3
298.15 K, m1 = 0.0508 | 999.07 kg/m3
298.15 K, m1 = 0.0592 | 999.42 kg/m3
298.15 K, m1 = 0.0725 | 999.91 kg/m3
298.15 K, m1 = 0.0769 | 1000.1 kg/m3
298.15 K, m1 = 0.0904 | 1000.51 kg/m3
298.15 K, m1 = 0.1072 | 1001.13 kg/m3
298.15 K, m1 = 0.1191 | 1001.63 kg/m3 and 1001.57 kg/m3
298.15 K, m1 = 0.1303 | 1002 kg/m3
308.15 K, m1 = 0.0306 | 995.14 kg/m3
308.15 K, m1 = 0.0404 | 995.53 kg/m3
308.15 K, m1 = 0.0514 | 995.89 kg/m3
308.15 K, m1 = 0.058 | 996.2 kg/m3
308.15 K, m1 = 0.0704 | 996.6 kg/m3
308.15 K, m1 = 0.0811 | 996.95 kg/m3
308.15 K, m1 = 0.0915 | 997.53 kg/m3
308.15 K, m1 = 0.1014 | 997.74 kg/m3
308.15 K, m1 = 0.1218 | 998.62 kg/m3
308.15 K, m1 = 0.152 | 999.56 kg/m3

CNC(=C[N+](=O)[O-])NCCSCc1ccc(CN(C)C)o1.Cl [ranitidine hydrochloride] + O
Settings | mass density [kg/m3]
288.15 K, m1 = 0.0202 | 1000.92
288.15 K, m1 = 0.0306 | 1001.78
288.15 K, m1 = 0.0407 | 1002.69
288.15 K, m1 = 0.0488 | 1003.32
288.15 K, m1 = 0.0602 | 1004.33
288.15 K, m1 = 0.0702 | 1005.27
288.15 K, m1 = 0.0813 | 1006.23
288.15 K, m1 = 0.092 | 1007.13
288.15 K, m1 = 0.1019 | 1007.93
288.15 K, m1 = 0.1149 | 1009.12
288.15 K, m1 = 0.1521 | 1012.15
298.15 K, m1 = 0.0103 | 997.99
298.15 K, m1 = 0.0198 | 998.81
298.15 K, m1 = 0.0295 | 999.58
298.15 K, m1 = 0.0501 | 1001.38
298.15 K, m1 = 0.0603 | 1002.17
298.15 K, m1 = 0.0697 | 1002.94
298.15 K, m1 = 0.0789 | 1003.7
298.15 K, m1 = 0.0907 | 1004.69
298.15 K, m1 = 0.0994 | 1005.38
298.15 K, m1 = 0.1171 | 1006.83
298.15 K, m1 = 0.1475 | 1009.32
308.15 K, m1 = 0.0109 | 994.91
308.15 K, m1 = 0.0191 | 995.59
308.15 K, m1 = 0.0313 | 996.62
308.15 K, m1 = 0.0428 | 997.58
308.15 K, m1 = 0.0507 | 998.2
308.15 K, m1 = 0.059 | 998.85
308.15 K, m1 = 0.0695 | 999.78
308.15 K, m1 = 0.0876 | 1001.15
308.15 K, m1 = 0.0986 | 1002.15
308.15 K, m1 = 0.119 | 1003.69
308.15 K, m1 = 0.1483 | 1006.01

COc1cccc([C@@]2(O)CCCC[C@@H]2CN(C)C)c1.Cl [tramadol hydrochloride] + O
Settings | mass density [kg/m3]
288.15 K, m1 = 0.0138 | 999.75
288.15 K, m1 = 0.026 | 1000.36
288.15 K, m1 = 0.0298 | 1000.53
288.15 K, m1 = 0.04 | 1001.04
288.15 K, m1 = 0.0536 | 1001.72
288.15 K, m1 = 0.0604 | 1002.03
288.15 K, m1 = 0.0702 | 1002.51
288.15 K, m1 = 0.0805 | 1002.96
288.15 K, m1 = 0.0903 | 1003.44
288.15 K, m1 = 0.099 | 1003.81
288.15 K, m1 = 0.1207 | 1004.82
288.15 K, m1 = 0.1511 | 1006.21
298.15 K, m1 = 0.0114 | 997.56
298.15 K, m1 = 0.0211 | 998.02
298.15 K, m1 = 0.0296 | 998.42
298.15 K, m1 = 0.0403 | 998.93
298.15 K, m1 = 0.0501 | 999.29
298.15 K, m1 = 0.0607 | 999.82
298.15 K, m1 = 0.0804 | 1000.74
298.15 K, m1 = 0.0923 | 1001.23
298.15 K, m1 = 0.1016 | 1001.66
298.15 K, m1 = 0.1183 | 1002.31
298.15 K, m1 = 0.149 | 1003.78
308.15 K, m1 = 0.0117 | 994.5
308.15 K, m1 = 0.0195 | 994.81
308.15 K, m1 = 0.0299 | 995.32
308.15 K, m1 = 0.0399 | 995.75
308.15 K, m1 = 0.0493 | 996.19
308.15 K, m1 = 0.06 | 996.6
308.15 K, m1 = 0.0717 | 997.13
308.15 K, m1 = 0.082 | 997.64
308.15 K, m1 = 0.0912 | 997.99
308.15 K, m1 = 0.1 | 998.39
308.15 K, m1 = 0.1181 | 999.15
308.15 K, m1 = 0.1501 | 1000.52
